Data reported in ChEMBL document CHEMBL3885881, “DrugMatrix”.

Species on record: Rattus norvegicus
Experiment: DrugMatrix - Regimen: Daily Repeat
Type: toxicity, organism-based, Sprague-Dawley
Design: regimen Daily Repeat, gender Male, age 6-8 weeks
Details: in vivo, po, 300 mg/kg, route oral GAVAGE, vehicle .5 % CMC; for ABSOLUTE BASOPHIL / ABSOLUTE EOSINOPHIL / ABSOLUTE LYMPHOCYTE / ABSOLUTE MONOCYTE / ABSOLUTE SEGMENTED NEUTROPHIL / BASOPHIL / EOSINOPHIL / ERYTHROCYTE COUNT / HEMATOCRIT / HEMOGLOBIN / LEUKOCYTE COUNT / LYMPHOCYTE / MEAN CORPUSCULAR HEMOGLOBIN / MEAN CORPUSCULAR HEMOGLOBIN CONCENTRATION / MEAN CORPUSCULAR VOLUME / MONOCYTE / NEUTROPHIL / NUCLEATED RED BLOOD CELLS / PLATELET COUNT: tissue Blood; for ALANINE AMINOTRANSFERASE / ALBUMIN / ALKALINE PHOSPHATASE / ASPARTATE AMINOTRANSFERASE / BLOOD UREA NITROGEN / CARBON DIOXIDE / CHLORIDE / CHOLESTEROL / CREATINE PHOSPHOKINASE / CREATININE / GLUCOSE / LACTATE DEHYDROGENASE / LIPASE / PHOSPHORUS / POTASSIUM / SODIUM / TOTAL BILIRUBIN / TOTAL PROTEIN / URIC ACID: tissue Plasma
[1] = 72 h, dose level M1, time 3 day
[2] = 120 h, dose level M1, time 5 day

COc1ccc(/C=C/C(=O)Nc2ccccc2C(=O)O)cc1OC
ABSOLUTE BASOPHIL [1]: 0 CELLS/uL | ABSOLUTE EOSINOPHIL [1]: 0 CELLS/uL | ABSOLUTE LYMPHOCYTE [1]: 15435.67 CELLS/uL | ABSOLUTE MONOCYTE [1]: 65.33 CELLS/uL | ABSOLUTE SEGMENTED NEUTROPHIL [1]: 1499 CELLS/uL | BASOPHIL [1]: 0% | EOSINOPHIL [1]: 0% | ERYTHROCYTE COUNT [1]: 5.52 x10E6/uL | HEMATOCRIT [1]: 35.2% | HEMOGLOBIN [1]: 13.97 G/DL | LEUKOCYTE COUNT [1]: 17 x10E3/uL | LYMPHOCYTE [1]: 90.67% | MEAN CORPUSCULAR HEMOGLOBIN [1]: 25.3 pg | MEAN CORPUSCULAR HEMOGLOBIN CONCENTRATION [1]: 39.67 G/DL | MEAN CORPUSCULAR VOLUME [1]: 63.73 fL | MONOCYTE [1]: 0.33% | NEUTROPHIL [1]: 9% | NUCLEATED RED BLOOD CELLS [1]: 0 /100WBC | PLATELET COUNT [1]: 1287.67 x10E3/uL | ALANINE AMINOTRANSFERASE [1]: 54.67 u/L | ALBUMIN [1]: 4.27 G/DL | ALKALINE PHOSPHATASE [1]: 401.67 u/L | ASPARTATE AMINOTRANSFERASE [1]: 92.67 u/L | BLOOD UREA NITROGEN [1]: 14 mg/dL | CARBON DIOXIDE [1]: 24 mmol/L | CHLORIDE [1]: 103 MEQ/L | CHOLESTEROL [1]: 78.33 mg/dL | CREATINE PHOSPHOKINASE [1]: 294 u/L | CREATININE [1]: 0.15 mg/dL | GLUCOSE [1]: 150.67 mg/dL | LACTATE DEHYDROGENASE [1]: 445 u/L | LIPASE [1]: 9 u/L | PHOSPHORUS [1]: 13.6 mg/dL | POTASSIUM [1]: 6.91 MEQ/L | SODIUM [1]: 145.8 MEQ/L | TOTAL BILIRUBIN [1]: 0.17 mg/dL | TOTAL PROTEIN [1]: 6 G/DL | URIC ACID [1]: 1.4 mg/dL | ABSOLUTE BASOPHIL [2]: 0 CELLS/uL | ABSOLUTE EOSINOPHIL [2]: 240.33 CELLS/uL | ABSOLUTE LYMPHOCYTE [2]: 16960.67 CELLS/uL | ABSOLUTE MONOCYTE [2]: 310.67 CELLS/uL | ABSOLUTE SEGMENTED NEUTROPHIL [2]: 988.33 CELLS/uL | BASOPHIL [2]: 0% | EOSINOPHIL [2]: 1.33% | ERYTHROCYTE COUNT [2]: 5.25 x10E6/uL | HEMATOCRIT [2]: 33.97% | HEMOGLOBIN [2]: 13.6 G/DL | LEUKOCYTE COUNT [2]: 18.5 x10E3/uL | LYMPHOCYTE [2]: 91.67% | MEAN CORPUSCULAR HEMOGLOBIN [2]: 25.93 pg | MEAN CORPUSCULAR HEMOGLOBIN CONCENTRATION [2]: 40.07 G/DL | MEAN CORPUSCULAR VOLUME [2]: 64.73 fL | MONOCYTE [2]: 1.67% | NEUTROPHIL [2]: 5.33% | NUCLEATED RED BLOOD CELLS [2]: 0 /100WBC | PLATELET COUNT [2]: 1233.33 x10E3/uL | ALANINE AMINOTRANSFERASE [2]: 54.33 u/L | ALBUMIN [2]: 4.33 G/DL | ALKALINE PHOSPHATASE [2]: 383 u/L | ASPARTATE AMINOTRANSFERASE [2]: 84.33 u/L | BLOOD UREA NITROGEN [2]: 18 mg/dL | CARBON DIOXIDE [2]: 21 mmol/L | CHLORIDE [2]: 105 MEQ/L | CHOLESTEROL [2]: 63 mg/dL | CREATINE PHOSPHOKINASE [2]: 256.33 u/L | CREATININE [2]: 0.21 mg/dL | GLUCOSE [2]: 156.33 mg/dL | LACTATE DEHYDROGENASE [2]: 285 u/L | LIPASE [2]: 8 u/L | PHOSPHORUS [2]: 11.8 mg/dL | POTASSIUM [2]: 6.72 MEQ/L | SODIUM [2]: 146.17 MEQ/L | TOTAL BILIRUBIN [2]: 0.2 mg/dL | TOTAL PROTEIN [2]: 5.93 G/DL | URIC ACID [2]: 1.3 mg/dL
